Results: US20260325464A1, “COMPOSITIONS FOR MODULATING THE EXPRESSION OF AQUAPORINS IN NEURODEGENERATIVE DISORDERS” (priority 2023, published 2026)
Read-outs that look alike come from different tables or passages of the source. Marks after values point to notes of the source that are not given here.

Assays:
Alzheimer's disease [1] = test: Morris water maze (MWM) test in rats with AlCl3-induced Alzheimer's disease; format: in vivo, rat; details: for Escape Latency Time: p.o. + AlCl3 (100 mg/kg, i.p.), MWM at 17th day, Mean ± SEM, n = 6
Procedure: Morris water maze (MWM)—This test was performed as per protocol established by Ishola et al., Protective role of Spondiasmombin leaf and Cola acuminata seed extracts against scopolamine-induced cognitive dysfunction. Alexandria J Med. 2018; 54(1):27-39. MWM is a round water tank “diameter: 110 cm and height: 60 cm” consisting of a white surface and that is filled using opaque water (Temp. 26±2° C.) to a distance (depth) of 30 cm. The MWM tank circle is divided into 4 equal quadrants [North Quadrant 1, East Quadrant 2, West Quadrant 3, and South Quadrant 4]. Further, it consists of a 10 cm diameter platform in a constant position. Index of memory improvement is measured by the Escape Latency Time (ELT)—which is the time the animal takes to find the platform.
The MWM plays an important role in the testing of learning and memory in rodent models of Alzheimer's Disease. It is used to test hippocampal-dependent learning, including acquisition of spatial memory and long-term spatial memory (Bromley-Brits et al., Morris water maze test for learning and memory deficits in Alzheimer's disease model mice, J Vis Exp., 2011 Jul. 20:(53):2920). In this study, learning was impaired in the Alzheimer's group.

Parkinson's disease = test: Open field test in rats with reserpine-induced Parkinson's disease; format: in vivo, rat; details: for Freezing / Number of central explorations / Number of squares crossed: p.o. + Reserpine (4 mg/kg, s.c.), open field, Mean ± SEM, n = 6
From the text: The induction of Parkinson's disease and measurement of other parameters were done as per the reported protocol (Santos et al., Cognitive, motor and tyrosine hydroxylase temporal impairment in a model of parkinsonism induced by reserpine. Behav Brain Res. 2013; 253:68-77 and Shishehbore et al. A novel kinetic spectrophotometric method for the determination of dopamine in biological and pharmaceutical samples. J Chem. 2013; 2013:1-6). Induction of Parkinson's disease was done by administering Resperine, which inhibits the monoamine vesicular transporters, thus decreasing the levels of monoamine neurotransmitters in the brain. Following pretreatment for 14 days with Gingerenone A, the rat groups received subcutaneous injections of reserpine (4 mg/kg) for the final five days of the treatment regimen. Resperine (5 mg) was dissolved in 1 ml of 1% acetic acid and then diluted tenfold with distilled water to achieve a final concentration of 500 μg/ml. The normal control group received saline with 1% acetic acid […], administered from day 10 to day 14. Thirty minutes following the administration of reserpine on the 14th day, behavioural assessments were conducted using the Open Field test, Y Maze, and Catalepsy tests to evaluate changes. Rats administered with Carbidopa, a known drug for the management of Parkinson's disease was also used for comparison. Upon completion of the study, brains were harvested for biochemical analyses and histopathological studies. The experimental group is depicted in table 10.
Open filed test—The test was conducted as per protocol described by Saleem et al., Pharmacological Potential of the Standardized Methanolic Extract of Prunus armeniaca L. in the Haloperidol-Induced Parkinsonism Rat Model. Evid Based Complement Alternat Med. 2022:29; 3697522. doi: 10.1155/2022/3697522. This test was conducted to assess the locomotor and exploratory behaviors of the experimental rats. A square-shaped wooden box measuring 100 cm in width, 100 cm in […], and 45 cm in height was constructed using plywood material, painted white, with a black-lined floor divided into 25 blocks. The rats were placed in the center of the field for a duration of 5 minutes and allowed to explore the box freely. The number of squares crossed, both centrally and horizontally, along with the total number of crossings, instances of defecation, freezing behavior, and postures were recorded during this period. Normal animals readily and quickly acclimate to the chamber and try to explore the center area of the squares.

Alzheimer's disease [2] = test: Elevated plus maze (EPM) test in rats with AlCl3-induced Alzheimer's disease; format: in vivo, rat; details: for EPM at 16th day Transfer Latency / EPM at 17th day Transfer Latency: p.o. + AlCl3 (100 mg/kg, i.p.), Mean ± SEM, n = 6
Procedure: Elevated plus maze (EPM)—Elevated plus maze (EPM)—This test was performed as per reported protocol (Bhuvanendran et al., Amelioration of cognitive deficit by Embelin in a Scopolamine-induced Alzheimer's disease-like condition in a rat model. Front Pharmacol. 2018:9(6):1-12 and Biradar et al., (2020) Experimental validation and network pharmacology evaluation to decipher the mechanism of action of Erythrina variegata L. bark against scopolamine-induced memory impairment in rats. Adv Tradit Med. 2020:26:1-4). EPM contains 2 closed and 2 open arms (four arms; equal dimensions of 50×10 cm). These 4 arms connect at central with a 10×10 cm square gap as an initial point. The transfer latency (TL) was recorded via stopwatch by keeping rats independently toward one side of the open arm. The EPM TL cut-off was set to 60 s throughout the study. […] Index of memory improvement is measured as a drop of transfer Latency (TL) by test drug.
The elevated plus maze is a test that is widely used to assess the anti-anxiety effects of test substances. As the test measures open arm activity, an increase in open arm activity (duration and/or entries) reflects anti-anxiety behaviour (Walf et al., The use of the elevated plus maze as an assay of anxiety-related behavior in rodents, Nat Protoc. 2007; 2(2): 322-328). In the present study, inducing Alzheimer's in the animals increased their anxiety which was reduced by the administration on Gingerenone A (Table 3).

[3] = system: acetylcholinesterase (AChE); details: for Ach E: p.o. + AlCl3 (100 mg/kg, i.p.), brain homogenate, Mean ± SEM, n = 6
Procedure: At the conclusion of the study, the rats were euthanized by decapitation, and their brains were swiftly removed and placed in ice-cold saline solution. The cortex and hippocampus were carefully isolated and submerged in an ice-cold water container to halt enzymatic reactions. The levels of acetylcholinesterase (AChE) and butyrylcholinesterase (BChE) in the cortex and hippocampus regions of the brain were determined using Ellman's method from 1961. Approximately 100 mg of the isolated brain sections were weighed and homogenized in phosphate buffer (0.1 M, pH 8.0). To 0.4 mL of the homogenate, the following components were added: 2.6 mL of phosphate buffer (0.1 M, pH 8.0), 100 μL of 10 mM 5,5-dithio-bis-(2-nitrobenzoic acid) (DTNB), and 20 μL of acetylthiocholine iodide (AChI) solution (0.075 M). The mixture was thoroughly mixed. The absorbance was then measured at 412 nm for a duration of 5 minutes.
n=6, All the values were expressed in Mean±SEM (n=6). The statistical analysis was carried out using one way ANOVA.

BDNF = BDNF level in brain homogenate (ELISA), AlCl3 Alzheimer's model; format: in vivo, rat; details: for BDNF: p.o. + AlCl3 (100 mg/kg, i.p.), brain homogenate, Mean ± SEM, n = 6
From the text: Brain-derived neurotrophic factors (BDNFs) play an important role in maintaining synaptic plasticity in learning and memory. Depletion of BDNF has been linked with Aβ accumulation, tau phosphorylation, neuroinflammation and neuronal apoptosis. Considering AD as a synaptic disorder, BDNF has attracted increasing attention as a potential diagnostic biomarker and a therapeutical molecule for AD. In the current study, BDNF levels were determiner using ELISA kit (Krishgen Biosystems, India).

## COc1cc(CC/C=C/C(=O)CCc2ccc(O)c(OC)c2)ccc1O [Gingerenone A]
Alzheimer's disease [1]; 5 mg/kg
  Escape Latency Time: 34.47 ± 3.87 s
Alzheimer's disease [1]; 10 mg/kg
  Escape Latency Time: 27.73 ± 2.18 s
Alzheimer's disease [1]; 20 mg/kg
  Escape Latency Time: 27.82 ± 2.63 s
Alzheimer's disease [1]; AlCl3 model, Table 4
  learning and memory in MWM (in words): significantly improved learning and memory
Parkinson's disease; 5 mg/kg
  Freezing: 15.29 ± 0.35 s
  Number of central explorations: 12.57 ± 1.05
  Number of squares crossed: 21.62 ± 2.47
Parkinson's disease; 10 mg/kg
  Freezing: 10.38 ± 0.62 s
  Number of central explorations: 17.34 ± 1.20
  Number of squares crossed: 27.45 ± 2.06
Parkinson's disease; 20 mg/kg
  Freezing: 9.02 ± 0.45 s
  Number of central explorations: 17.27 ± 0.98
  Number of squares crossed: 26.26 ± 2.27
Parkinson's disease; reserpine model, Table 11
  locomotory and exploratory behaviors (in words): significantly improved the behavior
Alzheimer's disease [2]; 5 mg/kg
  EPM at 16th day Transfer Latency: 25.70 ± 0.88 s
  EPM at 17th day Transfer Latency: 25.21 ± 1.04 s
Alzheimer's disease [2]; 10 mg/kg
  EPM at 16th day Transfer Latency: 21.76 ± 1.03 s
  EPM at 17th day Transfer Latency: 19.37 ± 0.47 s
Alzheimer's disease [2]; 20 mg/kg
  EPM at 16th day Transfer Latency: 19.38 ± 0.87 s
  EPM at 17th day Transfer Latency: 18.59 ± 0.86 s
Alzheimer's disease [2]; AlCl3 model, Table 3
  anxiety in EPM (in words): reduced
[3]; 5 mg/kg
  Ach E: 11.76 ± 0.93 10^−6 /mol/g of tissue
[3]; 10 mg/kg
  Ach E: 8.77 ± 0.49** 10^−6 /mol/g of tissue
[3]; 20 mg/kg
  Ach E: 6.87 ± 0.34** 10^−6 /mol/g of tissue
[3]; AlCl3 model, Table 5
  Acetyl cholinesterase (in words): significantly inhibited Acetyl cholinesterase
BDNF; 5 mg/kg
  BDNF: 29.36 ± 1.09 pg/mL
BDNF; 10 mg/kg
  BDNF: 36.07 ± 1.54 pg/mL
BDNF; 20 mg/kg
  BDNF: 38.76 ± 2.05 pg/mL
BDNF; AlCl3 model, Table 6
  levels of BDNF (in words): significantly increased the levels of BDNF
